Measured values taken from patent publication US10196389B2, “One class of pyrazolone compounds and use thereof” (SHANGHAI INSTITUTE OF MATERIA MEDICA, CHINESE ACADEMY OF …, priority 2014, dated 2019).
pEC50: −log10 of the molar value.

Key:
[1] = target: T1, human AMPK (α2β1γ1) (Homo sapiens, UniProt P54619+P54646+Q9Y478); experiment: AMPK (α2β1γ1) activation at molecular level, HTRF KinEASE-STK S1 kinase assay; assay type: biochemical; conditions: for Activation ratio (Fold) / pEC50: activation of human AMPK (α2β1γ1), 4 μM ATP, 45 min at 30° C.
T1 construct: made in house; host or cells: E. coli
Description: 1. Purpose of the experiment: To screen small molecule compounds that can activate AMPK (α2β1γ1).
2. Principle of the experiment: The peptide as substrate contains sites which can be AMPK phosphorylated. One terminal of the peptide is linked with biotin in the reaction system (containing 2 mM MgCl2, 400 μM DTT, 160 nM substrate peptide, 4 μM ATP and 1.6 nM AMPK). In the biotinylated terminal, biotin can link with streptavidin-XL665 (acceptor) so as to complete the labeling. After 45 minute of phosphorylation reaction, the phosphorylated substrate (i.e., product) can bind to an antibody (labeled Donor) which recognizes the phosphorylating site, and the biotin on the other terminal can linked to streptavidin-XL665 (acceptor) so that the resulting FRET signal can be detected with PE Evision. The final AMPK activity is expressed as a ratio of the 665 nm wavelength reading to the 615 nm wavelength reading (665 nm/615 nm).
3. Detection reagent: The human AMPK (α2β1γ1) protein was obtained by expression using an E. coli expression system and purification. HTRF KinEASE-STK S1 kit (purchased from Cisbio's); ATP (purchased from Sigma).
1) 200 nM AMPK (α2β1γ1) protein was incubated with 200 nM CaMKKβ at 30° C. for 4 hours in water bath to completely phosphorylate AMPK.
2) The enzyme reaction system (2 mM MgCl2, […], 160 nM substrate peptide, 4 µM ATP, and 1.6 nM AMPK) was prepared by using a white shallow plate purchased from PE. The reaction was reacted at 30° C. for 45 minutes. Phosphorylated recognizing peptides of the antibody and the XL665 Detection buffer were added and the mixture was incubated at room temperature for 3 hours before the signals were detected.

[2] = tested on: AMPK and ACC phosphorylation on HepG2 cells; experiment: AMPK and ACC phosphorylation on HepG2 cells (western blot); assay type: cell-based; conditions: different concentrations, FIG. 3
Description: (§1) 2. Experimental principle: Small molecule compounds allosterically activate AMPK and cause the phosphorylation of substrate acetyl-CoA carboxylase (ACC) at Ser-79-site.
(§2) 3. Detection reagents: AMPK, phospho-AMPK (T172), phospho-ACC (S79), and total ACC antibodies were purchased from Cell Signaling Technology.
(§3) 1) The cells were exchanged into serum-free medium and starved for two hours, and compounds were added to treat (in 0.4% DMSO) for 1 hour. The cells to be harvested were washed with PBS once. 1×SDS gel loading buffer (50 mM Tris (pH6.8), 100 mM DTT, 2% SDS, 10% glycerol, 0.1% bromophenol blue) was added to lysis cells (24 well plates, […] per well).
(§4) 2) The sample was heated at 100° C. for 10 minutes and then centrifuged at 12000 g for 10 minutes. The supernatant was subjected to SDS-PAGE electrophoresis under following condition: spacer gel: 70 volts, and separation gel: 90 volts.
(§5) 3) After electrophoresis, the proteins were transferred onto nitrocellulose membrane using Biorad wet electrical transduction system. After the desired band was cut, the strips were blocked in a blocking solution (TBST, containing 5% BSA) for 1 hour at room temperature. The strips were place in a solution containing the primary antibody and incubated overnight at 4° C.
(§6) 4) On next day, the target band was placed in TBST and washed at room temperature for 10 minutes (3 times). […]

[3] = tested on: AMPK and ACC phosphorylation on L6 myotubes; experiment: AMPK and ACC phosphorylation on L6 myotubes (western blot); assay type: cell-based; conditions: L6 muscle cells treated for 1 hour, FIGS. 2A and 2B
Description: as §1, §2, §3, §4, §5, §6

[4] = tested on: AMPK and ACC phosphorylation on SD rat primary hepatocytes; experiment: AMPK and ACC phosphorylation on SD rat primary hepatocytes (western blot); assay type: cell-based; conditions: primary hepatocytes of SD rats, different concentrations, FIG. 4
Description: as §1, §2, §3, §4, §5, §6

T1 sequence (P54646 whole entry): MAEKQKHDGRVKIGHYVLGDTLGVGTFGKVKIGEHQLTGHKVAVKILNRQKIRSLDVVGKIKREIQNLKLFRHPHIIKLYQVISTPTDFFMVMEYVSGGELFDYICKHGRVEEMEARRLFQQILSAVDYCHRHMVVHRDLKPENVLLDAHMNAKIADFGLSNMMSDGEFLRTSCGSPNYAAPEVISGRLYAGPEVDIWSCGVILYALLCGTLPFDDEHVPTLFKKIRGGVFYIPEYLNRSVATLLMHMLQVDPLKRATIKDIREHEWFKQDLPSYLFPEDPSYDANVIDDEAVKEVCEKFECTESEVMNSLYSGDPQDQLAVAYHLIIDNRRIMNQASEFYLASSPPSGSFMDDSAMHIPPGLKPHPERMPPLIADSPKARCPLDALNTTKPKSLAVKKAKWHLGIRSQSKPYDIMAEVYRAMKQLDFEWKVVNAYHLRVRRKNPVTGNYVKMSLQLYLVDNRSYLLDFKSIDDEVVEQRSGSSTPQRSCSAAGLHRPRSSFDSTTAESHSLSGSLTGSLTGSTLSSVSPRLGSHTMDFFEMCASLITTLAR
T1 sequence (Q9Y478 whole entry): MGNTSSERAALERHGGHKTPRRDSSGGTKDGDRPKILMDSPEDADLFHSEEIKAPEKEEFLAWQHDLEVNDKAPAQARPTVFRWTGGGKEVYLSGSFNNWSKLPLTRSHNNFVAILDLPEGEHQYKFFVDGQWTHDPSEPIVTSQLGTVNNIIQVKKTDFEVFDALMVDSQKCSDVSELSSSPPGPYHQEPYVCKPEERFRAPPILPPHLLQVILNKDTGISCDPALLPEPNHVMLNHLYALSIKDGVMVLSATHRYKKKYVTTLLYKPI
T1 sequence (P54619 whole entry): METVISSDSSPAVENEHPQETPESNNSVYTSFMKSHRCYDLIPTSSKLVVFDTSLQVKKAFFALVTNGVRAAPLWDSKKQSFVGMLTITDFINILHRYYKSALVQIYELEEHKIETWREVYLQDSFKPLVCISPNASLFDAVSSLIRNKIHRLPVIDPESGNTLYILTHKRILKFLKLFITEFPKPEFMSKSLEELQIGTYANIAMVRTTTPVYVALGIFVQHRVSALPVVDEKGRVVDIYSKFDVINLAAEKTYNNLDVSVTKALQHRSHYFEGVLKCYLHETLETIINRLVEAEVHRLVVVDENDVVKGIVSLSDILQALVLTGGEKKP

Activation ratio (Fold) [1]	pEC50 [1]	Structure (SMILES)	also measured
2.6 Fold	6.52	Nc1ncnc2c1ncn2[C@@H]1O[C@H](COP(=O)(O)O)[C@@H](O)[C@H]1O [AMP, reference compound]	–
–	5.24	COC(=O)c1ccc(CN2C=C3C(=O)N(c4ccc(F)c(C(F)(F)F)c4)N=C3CC2)cc1 [ZM-2, Methyl 4-((2-(4-fluoro-3-(trifluoromethyl)phenyl)-3-oxo-6,7-dihydro-2H-pyrazolo[4,3-c]pyridin-5(3H)-yl)methyl)benzoic acid]	–
–	5.01	COC(=O)c1ccc(CN2CCC3=NN(c4ccc(F)c(C(F)(F)F)c4)C(=O)C3C2)cc1 (stereo not drawn) [ZM-3, Methyl 4-((2-(4-fluoro-3-(trifluoromethyl)phenyl)-3-oxo-3a,4,6,7-tetrahydro-2H-pyrazolo[4,3-c]pyridin-5(3H)-yl)methyl)benzoic acid]	–
3.2 Fold	5.08	COC(=O)c1cccc(CN2CCC3=NN(c4ccc(F)c(C(F)(F)F)c4)C(=O)C3C2)c1 (stereo not drawn) [ZM-4]	–
3.0 Fold	5.96	COc1ccc(CN(C)C(=O)c2ccc(CN3C=C4C(=O)N(c5ccc(F)c(C(F)(F)F)c5)N=C4CC3)cc2)cc1OC [ZM-6]	–
2.7 Fold	5.34	COc1ccc(CNC(=O)c2cccc(CN3C=C4C(=O)N(c5ccc(F)c(C(F)(F)F)c5)N=C4CC3)c2)cc1OC [ZM-7]	–
3.0 Fold	5.07	O=C(NCc1ccccc1)c1ccc(CN2C=C3C(=O)N(c4ccc(F)c(C(F)(F)F)c4)N=C3CC2)cc1 [ZM-8]	–
2.8 Fold	5.28	COc1cccc(CNC(=O)c2ccc(CN3C=C4C(=O)N(c5ccc(F)c(C(F)(F)F)c5)N=C4CC3)cc2)c1 [ZM-9]	–
2.7 Fold	5.00	CCNC(=O)c1ccc(CN2C=C3C(=O)N(c4ccc(F)c(C(F)(F)F)c4)N=C3CC2)cc1 [ZM-10]	–
3.5 Fold	5.12	COc1cc(CNC(=O)c2ccc(CN3C=C4C(=O)N(c5ccc(F)c(C(F)(F)F)c5)N=C4CC3)cc2)cc(OC)c1OC [ZM-11]	–
3.0 Fold	5.30	O=C(NCc1ccc2c(c1)OCO2)c1ccc(CN2C=C3C(=O)N(c4ccc(F)c(C(F)(F)F)c4)N=C3CC2)cc1 [ZM-12]	–
2.5 Fold	5.48	O=C(NCc1cccc2c1OCO2)c1ccc(CN2C=C3C(=O)N(c4ccc(F)c(C(F)(F)F)c4)N=C3CC2)cc1 [ZM-13]	–
2.5 Fold	5.01	C[C@@H](NC(=O)c1ccc(CN2C=C3C(=O)N(c4ccc(F)c(C(F)(F)F)c4)N=C3CC2)cc1)c1ccccc1 [ZM-14]	–
2.2 Fold	5.24	O=C(NCC1CCCCC1)c1ccc(CN2C=C3C(=O)N(c4ccc(F)c(C(F)(F)F)c4)N=C3CC2)cc1 [ZM-15]	–
3.2 Fold	5.25	COc1ccc(CNC(=O)c2ccc(CN3C=C4C(=O)N(c5cccc(C(F)(F)F)c5)N=C4CC3)cc2)cc1OC [ZM-16]	–
2.1 Fold	5.02	COc1ccc(CNC(=O)c2ccc(CN3C=C4C(=O)N(c5ccc(S(N)(=O)=O)cc5)N=C4CC3)cc2)cc1OC [ZM-17]	–

Activation ratio (Fold) [1]	pEC50 [1]	Structure (SMILES)	also measured
2.8 Fold	5.20	COc1ccc(CNC(=O)c2ccc(CN3C=C4C(=O)N(c5nc6ccccc6s5)N=C4CC3)cc2)cc1OC [ZM-18]	–
2.6 Fold	5.25	COc1ccc(CNC(=O)c2ccc(CN3C=C4C(=O)N(c5ccc(F)c(C(F)(F)F)c5)N=C4CC3)c(C)c2)cc1OC [ZM-19]	–
2.8 Fold	5.36	COc1cc(F)c(CNC(=O)c2ccc(CN3C=C4C(=O)N(c5ccc(F)c(C(F)(F)F)c5)N=C4CC3)cc2)cc1OC [ZM-20]	–
2.2 Fold	5.40	COc1ccc(C(C)(C)NC(=O)c2ccc(CN3C=C4C(=O)N(c5ccc(F)c(C(F)(F)F)c5)N=C4CC3)cc2)cc1OC [ZM-21]	–
2.9 Fold	5.17	CCOc1cc(CNC(=O)c2ccc(CN3C=C4C(=O)N(c5ccc(F)c(C(F)(F)F)c5)N=C4CC3)cc2)ccc1OC [ZM-22]	–
3.0 Fold	5.27	CCOc1ccc(CNC(=O)c2ccc(CN3C=C4C(=O)N(c5ccc(F)c(C(F)(F)F)c5)N=C4CC3)cc2)cc1OC [ZM-23]	–
2.8 Fold	5.60	CCOc1ccc(CNC(=O)c2ccc(CN3CCc4c(c(=O)n(-c5ccc(F)c(C(F)(F)F)c5)n4C)C3)cc2)cc1OC [ZM-24]	–
3.1 Fold	5.60	COc1cc(CNC(=O)c2ccc(CN3CCc4c(c(=O)n(-c5ccc(F)c(C(F)(F)F)c5)n4C)C3)cc2)ccc1OC(C)C [ZM-25]	–
2.3 Fold	5.52	CCOc1cc(CNC(=O)c2ccc(CN3CCc4c(c(=O)n(-c5ccc(F)c(C(F)(F)F)c5)n4C)C3)cc2)ccc1OC [ZM-26]	–
2.3 Fold	5.30	COc1cc(CNC(=O)c2ccc(CN3C=C4C(=O)N(c5ccc(F)c(C(F)(F)F)c5)N=C4CC3)cc2)ccc1OC(F)F [ZM-27]	–
2.6 Fold	5.49	COc1ccc(C2(NC(=O)c3ccc(CN4C=C5C(=O)N(c6ccc(F)c(C(F)(F)F)c6)N=C5CC4)cc3)CC2)cc1OC [ZM-28]	–
2.9 Fold	5.01	COc1cc(CNC(=O)c2ccc(CN3C=C4C(=O)N(c5ccc(F)c(C(F)(F)F)c5)N=C4CC3)cc2)ccc1OC(C)C [ZM-29]	–
2.7 Fold	5.07	COc1cc(CNC(=O)c2ccc(CN3C=C4C(=O)N(c5ccc(F)c(C(F)(F)F)c5)N=C4CC3)cc2)ccc1O [ZM-30]	–
3.1 Fold	5.27	O=C(NCc1ccc(OC(F)F)c(OC(F)F)c1)c1ccc(CN2C=C3C(=O)N(c4ccc(F)c(C(F)(F)F)c4)N=C3CC2)cc1 [ZM-31]	–
2.4 Fold	5.39	COc1ccc(CNC(=O)c2ccc(CN3C=C4C(=O)N(c5ccc(F)c(C(F)(F)F)c5)N=C4CC3)cc2)cc1OC(F)F [ZM-32]	–

Structure (SMILES)	Activation ratio (Fold) [1]	pEC50 [1]	also measured
COc1ccc(CNC(=O)c2ccc(CN3C=C4C(=O)N(c5ccc(F)c(C(F)(F)F)c5)N=C4CC3)cc2)cc1OC [ZM-1]	3.3 Fold	5.68	AMPK activation [2]: activate AMPK; phosphorylation of ACC [2]: upregulate phosphorylation of ACC in a concentration or gradient dependent manner; AMPK activation at the cellular level [3]: dose-dependently activated; downstream phosphorylation levels of ACC [3]: increased accordingly; allosteric activation of AMPK in molecular level ([1]; Table 1 and FIG. 1): significantly and allosterically activate AMPK; AMPK activation [4]: activate AMPK; phosphorylation of ACC [4]: upregulate phosphorylation of ACC in a concentration or gradient dependent manner
COc1ccc(CNC(=O)c2ccc(CN3CCc4c(c(=O)n(-c5ccc(F)c(C(F)(F)F)c5)n4C)C3)cc2)cc1OC [ZM-5]	3.6 Fold	5.48	–
COc1ccc(CNC(=O)c2ccc(CN3CCC4=NN(c5ccc(F)c(C(F)(F)F)c5)C(=O)C4(C)C3)cc2)cc1OC (stereo not drawn) [ZM-33]	2.7 Fold	5.11	–
[2H]C([2H])([2H])Oc1ccc(CNC(=O)c2ccc(CN3C=C4C(=O)N(c5ccc(F)c(C(F)(F)F)c5)N=C4CC3)cc2)cc1OC [ZM-34]	2.1 Fold	5.20	–
